Tested on: Escherichia coli (E. coli—ATCC #10536)
Assay: Automated assessment of efficacy in surfactant base (2.85% sodium cocoyl glycinate and 1.85% sodium lauroamphoacetate, pH 10.0), 15 seconds exposure
Format: cell-based
Details: for No. of replicates showing growth (out of 4) / Δ OD 450 nm = OD450 (time = 16 hours) − OD450 (time zero), Mean / Δ OD 590 nm OD590 (time = 16 hours) − OD590 (time zero), Mean: alone, model surfactant solution
Description: Test Methodology for Automated Assessment of Efficacy in Surfactant Base Microbiocidal Activity of Actives as Per the Invention in a Model Surfactant Medium Test Methodology for Automated Assessment of Efficacy in Surfactant Base In these examples, the efficacy of combinations of actives were tested in a surfactant cleansing formulation comprising 2.85% sodium cocoyl glycinate and 1.85% sodium lauroamphoacetate. This corresponds to a 50% in use dilution with water of a neat formulation containing 5.7% cocoyl glycinate and […] % sodium, lauroamphoacetate during hand washing. Solutions were prepared such that the concentrations of the surfactant components and test actives were 1.1× the final desired concentration in order to allow for dilution with the bacterial inoculum in the test. The solutions were manually adjusted to pH 10.0 by dropwise addition of sodium hydroxide solution, as measured with a pH meter at ambient temperature. The efficacy of the combinations of the present invention was determined against Escherichia coli (E. coli—ATCC #10536), at a concentration of approximately 1×10^8 bacteria per mL. Tests were conducted using standard microtiter plate assays using an automated liquid handling system. 270 μl of the surfactant test solution was pipetted into each well of the microtitre plate and 30 μl of the bacterial suspension was then added. Alter exactly 15 seconds of bacterial exposure, a 30 μl volume of bacterial cells was withdrawn and transferred to 270 μl of D/E quench solution. After 5 minutes in the D/E quench, the optical density (OD) was measured for each plate in turn at two specific wavelengths (450 nm and 590 nm). These provide a dual check of antimicrobial activity, as the OD450 reading is specific for the yellow colour of D/E quench when bacterial growth is observed, whereas OD590 is specific for the initial purple colour of the D/E quench which is retained if no bacterial growth is observed. After the time zero OD measurements, plates were then incubated at 37° C. overnight (16 hours) before repeating the OD measurements. Delta OD values were calculated by subtracting […]. Bacterial growth is observed as an increase in OD450 and a decrease in ΔOD590. To identify antibacterially efficacious systems (those preventing appreciable bacterial growth after incubation), the following threshold changes in OD readings have been adopted: if (1). OD450 increases by less than 0.2 absorbance unit on incubation and (2). OD590 decreases by less than 0.35 unit on incubation. Conversely, where OD450 increases by more than 0.2 AU and OD590 decreases by more than 0.35 unit after incubation, corresponding to a colour shift from purple to yellow, the test system allows bacterial growth and is not deemed efficacious. Four replicate measurements in the same plate have been made for each test system. The number of replicate wells showing either bacterial growth or no growth is also readily assessed by eye by following the colour change. Dose responses for individual components and binary mixtures of actives at a fixed concentration ratio were generated by sequential dilution of liquors with further surfactant solution to obtain a series of endpoints. […] In some selected cases, the combinations were also tested at the weight ratio 1:1.

## Cc1ccc(C(C)C)c(O)c1O [3-isopropyl-6-methylbenzene-1,2-diol]
0.175% w/v
  No. of replicates showing growth (out of 4): 4
  Δ OD 450 nm = OD450 (time = 16 hours) − OD450 (time zero), Mean: −0.51
  Δ OD 590 nm OD590 (time = 16 hours) − OD590 (time zero), Mean: 0.53
0.2% w/v
  No. of replicates showing growth (out of 4): 4
  Δ OD 450 nm = OD450 (time = 16 hours) − OD450 (time zero), Mean: −0.53
  Δ OD 590 nm OD590 (time = 16 hours) − OD590 (time zero), Mean: 0.53
[…] w/v
  No. of replicates showing growth (out of 4): 4
  Δ OD 450 nm = OD450 (time = 16 hours) − OD450 (time zero), Mean: −0.50
  Δ OD 590 nm OD590 (time = 16 hours) − OD590 (time zero), Mean: 0.56
In 2.85% sodium cocoyl glycinate + 1.85% sodium lauroamphoacetate solution at pH 10, E. coli
  MBC (minimum biocidal concentration): >0.2 % w/v

— patent US9320271B2, “Microbial composition” (Rohm and Haas Company, priority 2011, dated 2016)
